Results on 32 compounds are retold here after US10647675B2 (priority 2015, dated 2020).

Test [1] concerns Trichophyton mentagrophytes SM-110. The experiment in a line: Antifungal activity evaluation test: minimum inhibitory concentration (MIC), broth dilution by reference to CLSI M38-A2. The test is classed as cell-based. The settings on record: SM110, read-out: MIC (T. menta.). In outline:
(§1)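 MIC read visually as lowest concentration inhibiting growth by at least 80% relative to control after 4 days at 35° C. Trichophyton strains inoculated at 2×10^3 cells/mL final in MOPS-buffered RPMI 1640 (pH 7.0); compounds as 2-fold DMSO series, CLSI M38-A2 basis.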
On the technique in general: In broth dilution the organism is exposed to a series of concentrations in liquid medium.

Test [2] concerns Trichophyton rubrum KD-1130. The test is described as above. The format is cell-based. As to conditions: KD1130, read-out: MIC (T. rubrum). In outline:
as §1

Structures are written as SMILES. Converted amounts (≈) assume the structure as drawn. Where only a bound is given, the exact number is not on record here.

As to `Cc1ccncc1-c1cccnc1Oc1ccc(C(C)(F)F)cc1` [I-299, 2-[4-(1,1-difluoroethyl)-phenoxy]-4′-methyl-3,3′-bipyridine], the MIC in test [1] and in test [2] was not above 0.1 µg/mL each time.

As for `COc1c(Cl)cncc1-c1cccnc1Oc1ccc(C(C)(F)F)cc1` [I-300], the MIC in test [1] and in test [2] was not above 0.1 µg/mL throughout.

Consider `COc1c(F)cncc1-c1cccnc1Oc1ccc(C(C)(F)F)cc1` [I-301, 2-[4-(1,1-difluoroethyl)-phenoxy]-5′-fluoro-4′-methoxy-3,3′-bipyridine], for which the MIC in test [1] and in test [2] was not above 0.1 µg/mL throughout.

For `COc1ccncc1-c1cccnc1Oc1ccc(C(C)(F)F)cc1F` [I-302], the MIC in test [1] and in test [2] was not above 0.1 µg/mL throughout.

With `Cc1ccncc1-c1cccnc1Oc1ccc(C(C)(F)F)cc1F` [I-303, 2-[4-(1,1-difluoroethyl)-2-fluorophenoxy]-4′-methyl-3,3′-bipyridine], the MIC in test [1] and in test [2] was not above 0.1 µg/mL in each case.

As to `COc1ccncc1-c1cccnc1Oc1ccc(C(C)(F)F)c(F)c1` [I-304], the MIC in test [1] and in test [2] was not above 0.1 µg/mL in each case.

Turning to `Cc1ccncc1-c1cccnc1Oc1ccc(C(C)(F)F)c(F)c1` [I-305, 2-[4-(1,1-difluoroethyl)-3-fluorophenoxy]-4′-methyl-3,3′-bipyridine], the MIC in test [1] and in test [2] was not above 0.1 µg/mL each time.

With `Cc1ccncc1-c1cccnc1Oc1ccc(C(F)(F)CF)cc1` [I-306], the MIC in test [1] and in test [2] was not above 0.1 µg/mL throughout.

Consider `CC(F)(F)c1ccc(Oc2ncccc2-c2cccc3ccnn23)cc1` [I-307, 7-{2-[4-(1,1-difluoroethyl)-phenoxy]pyridin-3-yl}pyrazolo[1,5-a]pyridine], for which the MIC in test [1] and in test [2] was not above 0.1 µg/mL throughout.

Regarding `CC(F)(F)c1ccc(Oc2ncccc2-c2cccc3nccnc23)cc1` [I-308, 5-{2-[4-(1,1-difluoroethyl)-phenoxy]-3-yl}quinoxaline], the MIC in test [1] and in test [2] was not above 0.1 µg/mL throughout.

For `COc1ccccc1-c1nccnc1Oc1ccc(C(F)(F)F)nc1` [I-309, 2-(2-methoxyphenyl)-3-{[6-(trifluoromethyl)pyridin-3-yl]oxy}pyrazine], the MIC in test [1] is 0.2 to 0.78 µg/mL (≈ 0.576 to 2.25 µM); in test [2], not above 0.1 µg/mL.

As to `COc1ccccc1-c1cncnc1Oc1ccc(C(F)(F)F)nc1` [I-310, 5-(2-methoxyphenyl)-4-{[6-(trifluoromethyl)pyridin-3-yl]oxy}pyrimidine], the MIC in test [1] and in test [2] was not above 0.1 µg/mL each time.

Turning to `COc1ccccc1-c1ccnnc1Oc1ccc(C(F)(F)F)nc1` [I-311, 4-(2-methoxyphenyl)-3-{[6-(trifluoromethyl)pyridin-3-yl]oxy}pyridazine], the MIC in test [1] and in test [2] was 0.2 to 0.78 µg/mL (≈ 0.576 to 2.25 µM) in each case.

Take `COc1ccccc1-c1cncnc1Oc1ccc(C(C)(F)F)nc1` [I-312, 4-{[6-(1,1-difluoroethyl)-pyridin-3-yl]oxy}-5-(2-methoxyphenyl)pyrimidine]: the MIC in test [1] and in test [2] was not above 0.1 µg/mL each time.

In the case of `COc1ccccc1-c1cccnc1Nc1ccc(C(F)(F)F)nc1` [I-313], the MIC in test [1] and in test [2] was not above 0.1 µg/mL each time.

On to `Clc1ccc(Oc2nccnc2-c2cccc3ccccc23)cc1` [I-314, 2-(4-chlorophenoxy)-3-(naphthalen-1-yl)pyrazine], for which the MIC in test [1] is 0.2 to 0.78 µg/mL (≈ 0.601 to 2.34 µM); in test [2], not above 0.1 µg/mL.

Turning to `COc1ccccc1-c1nccnc1Oc1ccc2c(c1)CCCC2` [I-315], the minimal inhibitory concentration (MIC) in test [1] and in test [2] was not above 0.1 µg/mL throughout.

Consider `COc1ncccc1-c1nccnc1Oc1ccc2c(c1)CCCC2` [I-316, 2-(2-methoxypyridin-3-yl)-3-[(5,6,7,8-tetrahydronaphthalen-2-yl)oxy]pyrazine], for which the MIC in test [1] and in test [2] was not above 0.1 µg/mL throughout.

With `COc1ccncc1-c1nccnc1Oc1ccc2c(c1)CCCC2` [I-317, 2-(4-methoxypyridin-3-yl)-3-[(5,6,7,8-tetrahydronaphthalen-2-yl)oxy]pyrazine], the MIC in test [1] and in test [2] was not above 0.1 µg/mL throughout.

On to `COc1ncccc1-c1nccnc1Oc1ccc(OCc2ccccc2)cc1` [I-318, 2-[4-(benzyloxy)phenoxy]-3-(2-methoxypyridin-3-yl)pyrazine], for which the MIC in test [1] and in test [2] was not above 0.1 µg/mL each time.

For the compound `COc1ccccc1-c1cncnc1Oc1ccc(Cl)cc1` [I-319, 4-(4-chlorophenoxy)-5-(2-methoxyphenyl)pyrimidine], the MIC in test [1] and in test [2] was not above 0.1 µg/mL in each case.

On to `COc1ccccc1-c1cncnc1Oc1ccc(C(C)C)cc1` [I-320, 4-(4-isopropylphenoxy)-5-(2-methoxyphenyl)pyrimidine], for which the MIC in test [1] and in test [2] was not above 0.1 µg/mL in each case.

As for `COc1ccccc1-c1cncnc1Oc1ccc(C(F)(F)F)cc1` [I-321, 5-(2-methoxyphenyl)-4-[4-(trifluoromethyl)phenoxy]pyrimidine], the MIC in test [1] and in test [2] was not above 0.1 µg/mL each time.

For the compound `COc1ccccc1-c1cncnc1Oc1ccc(C(F)F)cc1` [I-322, 4-[4-(difluoromethyl)phenoxy]-5-(2-methoxyphenyl)pyrimidine], the MIC in test [1] and in test [2] was not above 0.1 µg/mL throughout.

Regarding `COc1ccccc1-c1cncnc1Oc1ccc(C(F)F)c(C)c1` [I-323, 4-[4-(difluoromethyl)-3-methylphenoxy]-5-(2-methoxyphenyl)pyrimidine], the MIC in test [1] and in test [2] was not above 0.1 µg/mL in each case.

`Cc1cc(Oc2ncncc2-c2cccc3c2OCC3)cnc1C(F)F` [I-324]: the MIC in test [1] and in test [2] was not above 0.1 µg/mL throughout.

Regarding `COc1cc(-c2cncnc2Oc2cnc(C(F)F)c(C)c2)c(F)cc1F` [I-325, 5-(2,4-difluoro-5-methoxyphenyl)-4-{[6-(difluoromethyl)-5-methylpyridin-3-yl]oxy}pyrimidine], the MIC in test [1] and in test [2] was not above 0.1 µg/mL in each case.

As to `c1cc(-c2cncnc2Oc2ccc3c(c2)CCC3)n2nccc2c1` [I-326, 7-{4-[(2,3-dihydro-1H-inden-5-yl)oxy]pyrimidin-5-yl}pyrazolo[1,5-a]pyridine], the MIC in test [1] and in test [2] was not above 0.1 µg/mL each time.

On to `FC(F)(F)c1ccc(Oc2ncncc2-c2cccc3c2OCC3)cn1` [I-327, 5-(2,3-dihydrobenzofuran-7-yl)-4-{[6-(trifluoromethyl)pyridin-3-yl]oxy}pyrimidine], for which the MIC in test [1] and in test [2] was not above 0.1 µg/mL in each case.

For `COc1cc(F)c(F)cc1-c1cncnc1Oc1ccc(C(F)(F)F)nc1` [I-328, 5-(4,5-difluoro-2-methoxyphenyl)-4-{[6-(trifluoromethyl)pyridin-3-yl]oxy}pyrimidine], the MIC in test [1] and in test [2] was not above 0.1 µg/mL each time.

With `COc1cc(-c2cncnc2Oc2ccc(C(F)(F)F)nc2)c(F)cc1F` [I-329, 5-(2,4-difluoro-5-methoxyphenyl)-4-{[6-(trifluoromethyl)pyridin-3-yl]oxy}pyrimidine], the MIC in test [1] and in test [2] was not above 0.1 µg/mL in each case.

With `COc1ncccc1-c1cncnc1Oc1ccc(C(F)(F)F)cc1` [I-330, 5-(2-methoxypyridin-3-yl)-4-[4-(trifluoromethyl)phenoxy]pyrimidine], the MIC in test [1] and in test [2] was not above 0.1 µg/mL each time.

For orientation: MIC means the smallest concentration in the dilution series that meets the test's criterion for growth inhibition.
